Here are results for 2 compounds from article PMC4299541 (Cardiovascular Diabetology, 2015).

Usually KD stands for a measure of binding affinity in units of concentration. Read a high KD as weaker binding. A word on the Kd: it is the constant that tells how readily two partners part at equilibrium.

Test [1] relates to Control-aptamer (DNA, single strand, phosphorothioate linkages (positions as in ref 24)) TTCGGCCTGGGGGCGGCCAGTTCGGGTCCAGTCGCGGGAG
Kind of test: quartz crystal microbalance (27 MHz). Particulars: immobilised compound; highest concentration not stated.

For test [2], the system named is AGE-aptamer (DNA, aptamer, phosphorothioate linkages (positions drawn in Figure 3A)) TGTAGCCCGAGTATCATTCTCCATCGCCCCCAGATACAAG
Kind of test: quartz crystal microbalance (27 MHz), curve fitting. Particulars: aptamer immobilised, GLAP added; not affected by 2% fetal bovine serum.

The subject of test [3] is GLAP-aptamer (DNA, aptamer, phosphorothioate linkage at each three bases (exact positions drawn in Figure 1C)) GCGGGTTGGGAGCCACTAGTAGCAACGTGCGACCCTCTACGAAGCAAACCATCCTCA
Described as above. Particulars: immobilised compound; not affected by 2% fetal bovine serum.

The target of test [4] is T1, RAGE (receptor for AGEs), vRAGE (Homo sapiens, UniProt Q15109).
T1 construct: gene AGER
Kind of test: 27-MHz quartz crystal microbalance, vRAGE immobilized. Format: binding.

T1 sequence (Q15109 23-116 limits assumed): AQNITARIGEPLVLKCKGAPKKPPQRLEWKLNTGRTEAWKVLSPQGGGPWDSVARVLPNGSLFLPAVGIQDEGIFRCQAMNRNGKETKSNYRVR

As to `CC(=O)NC(CCCC[n+]1cc(O)cc(CO)c1)C(=O)O` (racemic), the binding entry in test [1] is reported as “no”. Moreover, the KD in test [2] worked out at 33 µM; in test [3], 2.6 µM.
Consider GLAP, for which the dissociation constant (Kd) in test [4] was 59 µM.
